Measurements taken from BindingDB's records for doi:10.1016/s0968-0896(01)00250-4 (Pfizer, 2002).

target: T1, Caspase-1 (Homo sapiens, UniProt P29466); experiment: Caspase Inhibition Assay; details: pH 7; 37 °C
T1 sequence (P29466 whole entry): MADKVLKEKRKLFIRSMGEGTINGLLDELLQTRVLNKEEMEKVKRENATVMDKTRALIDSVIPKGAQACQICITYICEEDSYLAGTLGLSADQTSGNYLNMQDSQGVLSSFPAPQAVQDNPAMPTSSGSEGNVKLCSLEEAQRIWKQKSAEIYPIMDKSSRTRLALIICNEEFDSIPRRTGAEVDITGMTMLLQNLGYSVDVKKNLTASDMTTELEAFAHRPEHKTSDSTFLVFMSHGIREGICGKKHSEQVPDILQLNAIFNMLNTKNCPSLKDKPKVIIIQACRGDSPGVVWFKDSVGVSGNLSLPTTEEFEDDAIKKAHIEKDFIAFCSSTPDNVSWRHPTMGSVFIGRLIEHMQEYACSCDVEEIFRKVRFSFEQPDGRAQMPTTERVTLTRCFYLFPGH
Experimental: The substrate peptides terminating in AMC are processed by caspases with or without inhibitors, and the accumulation of AMC was assessed with a Cytofluor fluorescent plate reader at excitation and emission wavelengths of 380 and 460 nm. Compounds were tested, and full IC50 curves were run for all compounds expressing measurable inhibitory activity.

Row | Structure (SMILES) | Ki [µM]
1 | O=C(O)C[C@H](NC(=O)OCc1ccccc1)C(=O)CCCCCc1ccccc1 [(S)-3-Benzyloxycarbonylamino-4-oxo-9-phenyl-nonanoic acid] | 119
2 | Cc1ccccc1-c1ccccc1S(=O)(=O)N[C@H](C=O)CC(=O)O [(S)-3-(2-Methyl-biphenyl-2-sulfonylamino)-4-oxo-butyric acid] | 6.8
3 | O=C(O)C[C@H](NC(=O)OCc1ccccc1)C(=O)CSCCCc1ccccc1 [(S)-3-Benzyloxycarbonylamino-4-oxo-5-(3-phenyl-propyl-sulfanyl)-pentanoic acid] | 25
4 | O=C[C@H](CC(=O)O)NS(=O)(=O)c1ccccc1 [(3S)-3-benzenesulfonamido-4-oxobutanoic acid] | 9.4
5 | CC(=O)N[C@@H](Cc1ccc(O)cc1)C(=O)N[C@H](C(=O)N[C@@H](C)C(=O)N[C@@H](CC(=O)O)C(=O)CCCCCc1ccccc1)C(C)C [(3S)-3-[(2S)-2-[(2S)-2-[(2S)-2-acetamido-3-(4-hydroxyphenyl)propanamido]-3-methylbutanamido]propanamido]-4-oxo-9-phenylnonanoic acid] | 0.011

The remaining lines, values ahead:

Row | Ki [µM] | Structure (SMILES)
6 | 24 | O=C(O)C[C@H](NS(=O)(=O)c1ccccc1)C(=O)CCCCCc1ccccc1 [(3S)-3-benzenesulfonamido-4-oxo-9-phenylnonanoic acid]
7 | 3.1 | Cc1cccc(-c2ccccc2S(=O)(=O)N[C@H](C=O)CC(=O)O)c1 [(3S)-3-{[2-(3-methylphenyl)benzene]sulfonamido}-4-oxobutanoic acid]
8 | 1.9 | Cc1cccc(S(=O)(=O)N[C@H](C=O)CC(=O)O)c1-c1ccccc1 [(S)-3-(6-Methyl-biphenyl-2-sulfonylamino)-4-oxo-butyric acid]
9 | 7.2 | Cc1ccc(-c2ccccc2S(=O)(=O)N[C@H](C=O)CC(=O)O)cc1 [(3S)-3-{[2-(4-methylphenyl)benzene]sulfonamido}-4-oxobutanoic acid]
10 | 24 | O=C(O)C[C@H](NS(=O)(=O)c1ccccc1)C(=O)CSCCCc1ccccc1 [(3S)-3-benzenesulfonamido-4-oxo-5-[(3-phenylpropyl)sulfanyl]pentanoic acid]
11 | 6.9 | O=C[C@H](CC(=O)O)NS(=O)(=O)c1ccccc1-c1cccc2ccccc12 [(3S)-3-{[2-(naphthalen-1-yl)benzene]sulfonamido}-4-oxobutanoic acid]
